The text below walks through data of PubChem BioAssay (NCI).

“And” between values parts separate entries of the source, which are not always exact repeats. Identical values can stand only once.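 Assay format: 96-well plates, 48-hour exposure. Abbreviation: GI50, concentration required for 50% inhibition of growth. At the TGI there is no net growth.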

Some test systems named below: A498 renal; UO-31 renal; NCI-H522 lung; PC-3 prostate; HCC-2998 colon; SW-620 colon; NCI-H23 lung; SF-539 CNS; OVCAR-8 ovarian; HT29 colon.
Common to all, as to experiment: NCI tumour cell line growth inhibition, 48 h

Turning to `CC[C@H](C)[C@H](NC(=O)c1nccn1C)C(=O)N(C)[C@H](C[C@@H](OC(C)=O)c1nc(C(=O)N[C@@H](Cc2ccccc2)C[C@H](C)C(=O)OC)cs1)C(C)C`, the GI50 is 1.11 µM in the assay with A498 renal; 2.9 µM in the assay on UO-31 renal; 0.351 µM in the assay on NCI-H522 lung; 1.11 µM in the assay with PC-3 prostate; 1.08 µM in the assay on HCC-2998 colon; 1.33 µM in the assay with SW-620 colon. Also, the GI50 in the assay on NCI-H23 lung was 1.36 µM; in the assay on SF-539 CNS it was 0.702 µM; with OVCAR-8 ovarian, 1.44 µM; in the assay with HT29 colon, 1 µM. Besides, the TGI is above 33.3 µM in the assay with A498 renal; above 33.3 µM in the assay on UO-31 renal; 1.56 µM in the assay with NCI-H522 lung; above 33.3 µM in the assay on PC-3 prostate; above 33.3 µM with HCC-2998 colon; above 33.3 µM in the assay on SW-620 colon. Besides, the TGI with NCI-H23 lung is above 33.3 µM; in the assay with SF-539 CNS it was 1.97 µM; in the assay with OVCAR-8 ovarian, above 33.3 µM; in the assay with HT29 colon it was 11.1 µM.
On to `O=c1oc2cc(OS(=O)(=O)c3ccccc3)ccc2c2c1CCCCC2`, for which the GI50 in the assay with A498 renal is above 100 µM; in the assay with UO-31 renal it was 8 µM; in the assay with NCI-H522 lung, 6.44 µM; with PC-3 prostate it was 2.61 µM; with HCC-2998 colon, 32.1 µM; with SW-620 colon, 4.89 µM. In addition, the GI50 was 7.27 µM with NCI-H23 lung, 6.68 µM with SF-539 CNS, 86.1 µM with OVCAR-8 ovarian and 2.84 µM in the assay with HT29 colon. The TGI in the assay with A498 renal, with UO-31 renal, in the assay on NCI-H522 lung, in the assay with PC-3 prostate, in the assay on HCC-2998 colon and in the assay on SW-620 colon was above 100 µM each time. Further, the TGI in the assay on NCI-H23 lung, in the assay on SF-539 CNS, in the assay with OVCAR-8 ovarian and in the assay with HT29 colon was above 100 µM in each case.
On to `CC(C)(F)C[C@H](N[C@@H](c1ccc(-c2ccc(S(C)(=O)=O)cc2)cc1)C(F)(F)F)C(=O)NC1(C#N)CC1`, for which the GI50 with A498 renal was 33.6 µM and 28 µM; in the assay on UO-31 renal, 49.3 µM and 23.2 µM; in the assay with NCI-H522 lung it was 15.8 µM and 24.7 µM; in the assay on PC-3 prostate, 36.9 µM and 27.9 µM; in the assay with HCC-2998 colon, above 100 µM; in the assay on SW-620 colon, above 100 µM. Further, the GI50 in the assay on NCI-H23 lung is 28.5 µM and 39.9 µM; in the assay on SF-539 CNS it was 11.8 µM and 23.1 µM; in the assay on OVCAR-8 ovarian, 18 µM and 19.5 µM; in the assay on HT29 colon it was above 100 µM. Further, the TGI was 55 µM and > 100 µM in the assay with A498 renal; 55 µM and > 100 µM in the assay on UO-31 renal; 55 µM and > 100 µM in the assay with NCI-H522 lung; 55 µM and > 100 µM with PC-3 prostate; above 100 µM in the assay with HCC-2998 colon; above 100 µM in the assay on SW-620 colon. Further, the TGI in the assay with NCI-H23 lung is 55 µM and > 100 µM; in the assay on SF-539 CNS, 31.8 µM and 53.2 µM; in the assay with OVCAR-8 ovarian it was 55 µM and 63.8 µM; in the assay with HT29 colon, above 100 µM.
As for `Cc1c(N)nc(C(CC(N)=O)NCC(N)C(N)=O)nc1C(=O)NC(C(=O)NC(C)C(O)C(C)C(=O)NC(C(=O)NCCc1nc(-c2nc(C(=O)NCCCNCCCCN)cs2)cs1)C(C)O)C(OC1OC(CO)C(O)C(O)C1OC1OC(CO)C(O)C(OC(N)=O)C1O)c1cnc[nH]1` (configuration not stated), the GI50 with A498 renal was 18.5 µg/mL; with UO-31 renal, 2.07 µg/mL and 0.691 µg/mL; in the assay on NCI-H522 lung, 7.11 µg/mL; in the assay with PC-3 prostate it was 15.3 µg/mL; with SW-620 colon, 25.2 µg/mL; in the assay on NCI-H23 lung it was 0.251 µg/mL. Also, the GI50 in the assay with SF-539 CNS is 0.21 µg/mL and 0.0169 µg/mL; with OVCAR-8 ovarian it was 2.1 µg/mL and 1.04 µg/mL; with HT29 colon, 50.8 µg/mL. Further, the TGI was above 10 µM in the assay with A498 renal; 5.71 µg/mL and > 10 µM in the assay with UO-31 renal; above 10 µM in the assay on NCI-H522 lung; above 10 µM with HCC-2998 colon; above 10 µM with SW-620 colon; 11.1 µg/mL and > 10 µM in the assay with NCI-H23 lung. Besides, the TGI in the assay with OVCAR-8 ovarian was 9.85 µg/mL and 25.1 µg/mL and > 10 µM; in the assay on HT29 colon, above 10 µM.
Take `O=C(O)c1cc2c(c3ccsc13)-c1ccccc1CC2`: the GI50 is 19.2 µM in the assay on A498 renal; 29.3 µM with UO-31 renal; 29 µM with NCI-H522 lung; 40.9 µM in the assay on PC-3 prostate; 24.2 µM in the assay with HCC-2998 colon; 40.2 µM in the assay on SW-620 colon. The GI50 in the assay with NCI-H23 lung is 30.1 µM; in the assay with SF-539 CNS it was 36.5 µM; in the assay on OVCAR-8 ovarian it was 40.7 µM; in the assay with HT29 colon it was 39.4 µM. Moreover, the TGI was 61.8 µM in the assay with A498 renal; 79.5 µM in the assay on UO-31 renal; 82.1 µM with NCI-H522 lung; above 100 µM in the assay with PC-3 prostate; 69.6 µM in the assay on HCC-2998 colon; above 100 µM in the assay with SW-620 colon. The TGI in the assay with NCI-H23 lung was 79.5 µM; in the assay on SF-539 CNS it was above 100 µM; in the assay with OVCAR-8 ovarian, above 100 µM; in the assay on HT29 colon, above 100 µM.
Take `O=C(Nc1cccc([N+](=O)[O-])c1)c1cc2ccccc2cc1O`: the GI50 with A498 renal is 1.41 µM; with UO-31 renal, 1.25 µM; in the assay on NCI-H522 lung, 0.384 µM; in the assay on PC-3 prostate it was 1.49 µM; in the assay with HCC-2998 colon, 2.16 µM; with SW-620 colon, 2.72 µM. Also, the GI50 is 0.72 µM in the assay on NCI-H23 lung, 1.57 µM in the assay with SF-539 CNS, 3.31 µM in the assay with OVCAR-8 ovarian and 3.09 µM in the assay on HT29 colon. The TGI in the assay with A498 renal is 6.19 µM; in the assay with UO-31 renal it was 7.46 µM; in the assay on NCI-H522 lung, 2.66 µM; in the assay with PC-3 prostate, above 30.5 µM; in the assay with HCC-2998 colon it was 6.11 µM; with SW-620 colon, 17 µM. In addition, the TGI in the assay with NCI-H23 lung is 3.65 µM; in the assay on SF-539 CNS, 8.84 µM; with OVCAR-8 ovarian it was 26.1 µM; with HT29 colon, above 30.7 µM.
Consider `C#CCOc1cccc(Nc2ncc3ncn(C4CCN(C(=O)CCl)C4)c3n2)c1` (configuration not stated), for which the GI50 with A498 renal is above 62.5 µM; in the assay with UO-31 renal, 37.4 µM; in the assay on NCI-H522 lung it was 7.08 µM; with PC-3 prostate, above 62.5 µM; with HCC-2998 colon, above 62.5 µM; with SW-620 colon it was 15.4 µM. The GI50 in the assay with NCI-H23 lung, with SF-539 CNS, in the assay on OVCAR-8 ovarian and with HT29 colon was above 62.5 µM in each case. The TGI in the assay with A498 renal was above 62.5 µM; in the assay with UO-31 renal, above 62.5 µM; in the assay on NCI-H522 lung it was 18.1 µM; in the assay with PC-3 prostate it was above 62.5 µM; in the assay on HCC-2998 colon, above 62.5 µM; in the assay on SW-620 colon, above 62.5 µM. In addition, the TGI in the assay with NCI-H23 lung, in the assay on SF-539 CNS, with OVCAR-8 ovarian and in the assay with HT29 colon was above 62.5 µM each time.
`N#Cc1ncc(N2C(=O)C3(CCC3)N(c3ccc(OC4CCNCC4)nc3)C2=S)cc1C(F)(F)F`: the GI50 in the assay on A498 renal was 12.2 µM; with UO-31 renal it was 11 µM; with NCI-H522 lung, 18.1 µM; in the assay on PC-3 prostate, 13.9 µM; in the assay on HCC-2998 colon, 15.6 µM; in the assay with SW-620 colon, 14.7 µM. Besides, the GI50 in the assay with NCI-H23 lung was 13.9 µM; in the assay on SF-539 CNS it was 15.4 µM; in the assay with OVCAR-8 ovarian, 25.1 µM; with HT29 colon, 8.92 µM. The TGI with A498 renal amounted to 32.7 µM; with UO-31 renal, 23.3 µM; in the assay with NCI-H522 lung it was 35.5 µM; with PC-3 prostate, 28.9 µM; in the assay on HCC-2998 colon, 31.2 µM; in the assay on SW-620 colon, 29.5 µM. The TGI in the assay with NCI-H23 lung was determined as 32.1 µM; in the assay with SF-539 CNS, 30 µM; with OVCAR-8 ovarian it was 76.2 µM; with HT29 colon, 29.9 µM.
Consider `CS(=O)(=O)Nc1cc(-c2ccc3ncnc(Nc4cccc(Cl)c4F)c3c2)cnc1Cl`, for which the GI50 in the assay on A498 renal was 1.68 µM; in the assay on UO-31 renal it was 1.24 µM; with NCI-H522 lung, 3 µM; with PC-3 prostate it was 2.27 µM; in the assay on HCC-2998 colon it was 1.66 µM; with SW-620 colon it was 3.31 µM. Besides, the GI50 in the assay on NCI-H23 lung is 2.33 µM; in the assay with SF-539 CNS it was 2.26 µM; in the assay on OVCAR-8 ovarian, 4.03 µM; with HT29 colon, 3.3 µM. Further, the TGI was 4.1 µM in the assay on A498 renal; 4.3 µM in the assay with UO-31 renal; 17 µM in the assay with NCI-H522 lung; 11.6 µM in the assay on PC-3 prostate; 5.01 µM with HCC-2998 colon; 37.7 µM in the assay on SW-620 colon. Further, the TGI in the assay with NCI-H23 lung is 10.1 µM; in the assay on SF-539 CNS, 7.98 µM; in the assay on OVCAR-8 ovarian it was 58.5 µM; in the assay with HT29 colon, 38.4 µM.
In the case of `FC(F)(F)c1cc(NC2=NCCN=C(Nc3cc(C(F)(F)F)cc(C(F)(F)F)c3)SS2)cc(C(F)(F)F)c1`, the GI50 with A498 renal is 2.24 µM; in the assay on UO-31 renal, 2.66 µM; in the assay with NCI-H522 lung it was 2.84 µM; in the assay with PC-3 prostate it was 3 µM; in the assay with HCC-2998 colon it was 6.15 µM; in the assay with SW-620 colon, 3.71 µM. For the same compound, the GI50 in the assay on NCI-H23 lung was 4.75 µM; in the assay with SF-539 CNS it was 5.21 µM; in the assay on OVCAR-8 ovarian, 3.7 µM; in the assay with HT29 colon, 3.85 µM. Besides, the TGI in the assay on A498 renal amounted to 9.68 µM; in the assay on UO-31 renal it was 11.9 µM; with NCI-H522 lung, 10.6 µM; with PC-3 prostate it was 12.1 µM; with HCC-2998 colon it was 19.3 µM; with SW-620 colon, 14.8 µM. Further, the TGI turned out to be 17.4 µM in the assay with NCI-H23 lung, 18.3 µM in the assay on SF-539 CNS, 16.9 µM with OVCAR-8 ovarian and 14.1 µM with HT29 colon.
